The source made the active and inactive calls. A value given as a limit tells only on which side of the number the result lay.

One may read the IC50 as the concentration that gives 50% inhibition. As usually defined, the EC50 is the concentration that produces a half-maximal response. In general, AC50 refers to the concentration giving half of the maximal activity seen.

For test [1], the target named is T1, Tyrosine-protein phosphatase non-receptor type 7 (Homo sapiens, UniProt P35236).
T1 sequence (P35236 whole entry): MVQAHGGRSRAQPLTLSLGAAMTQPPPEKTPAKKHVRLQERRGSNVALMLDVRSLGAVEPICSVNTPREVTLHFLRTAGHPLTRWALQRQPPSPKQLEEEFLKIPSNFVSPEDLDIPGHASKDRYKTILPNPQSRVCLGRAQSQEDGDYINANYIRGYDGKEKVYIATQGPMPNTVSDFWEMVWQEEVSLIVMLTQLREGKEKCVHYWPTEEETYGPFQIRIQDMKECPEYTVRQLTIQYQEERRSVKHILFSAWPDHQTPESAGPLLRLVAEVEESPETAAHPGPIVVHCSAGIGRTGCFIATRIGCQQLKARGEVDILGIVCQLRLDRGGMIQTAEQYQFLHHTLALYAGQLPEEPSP
Nature of the test: HePTP tyrosine phosphatase activity blockers – biochemical, absorbance, leukemia target, primary screen (AID 521). Type of test: functional.

Test [2] in a line: viability of PTEN-deleted HCT116 cells – cell-based, HCT116 PTEN knockout, dose response (AID 1047).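 Also: HCT116 colon tumor cells with PTEN knocked out; cells exposed to compound for 60 hours before readout; potency for loss of cell viability measured by luminescence.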 Type of test: functional.
A short description of test [3]: reduced cellular PGC1a acetyl-lysine signal – cell-based, cherry-picked samples, dose response (AID 720514).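 Also: potency may reflect raised or lowered acetylation signal.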 Format: functional.
Test [4] can be described thus: viability of HCT116 lacking mutant beta-catenin – cell-based, human colon tumor, dose response (AID 1045).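 Also: HCT116 colon tumor cells with beta catenin knocked out; cells exposed to compound for 60 hours.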 Format: functional.
Another test addresses T2, Protein skinhead-1 (Caenorhabditis elegans, UniProt P34707).
T2 sequence (P34707 whole entry): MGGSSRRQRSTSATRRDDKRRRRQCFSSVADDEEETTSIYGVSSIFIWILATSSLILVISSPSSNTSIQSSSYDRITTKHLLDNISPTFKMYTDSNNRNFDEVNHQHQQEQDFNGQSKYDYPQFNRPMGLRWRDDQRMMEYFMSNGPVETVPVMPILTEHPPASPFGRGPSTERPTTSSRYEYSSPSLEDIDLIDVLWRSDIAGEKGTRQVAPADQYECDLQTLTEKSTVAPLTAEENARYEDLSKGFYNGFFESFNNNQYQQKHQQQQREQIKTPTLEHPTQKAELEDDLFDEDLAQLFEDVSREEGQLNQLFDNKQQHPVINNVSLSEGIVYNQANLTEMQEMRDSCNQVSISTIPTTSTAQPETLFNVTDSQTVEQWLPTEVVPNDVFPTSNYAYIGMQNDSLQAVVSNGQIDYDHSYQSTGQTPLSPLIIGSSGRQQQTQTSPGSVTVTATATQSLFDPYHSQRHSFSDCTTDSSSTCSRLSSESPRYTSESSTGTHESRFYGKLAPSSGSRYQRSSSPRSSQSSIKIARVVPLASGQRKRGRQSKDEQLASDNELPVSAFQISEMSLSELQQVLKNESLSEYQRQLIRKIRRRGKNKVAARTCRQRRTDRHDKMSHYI
Format: functional.

The target in test [5] is Nucleotide-binding oligomerization domain-containing protein 2 (Homo sapiens, UniProt Q9HC29). Kind of test: inhibition of NOD2-driven NF-kB reporter – cell-based, luminescence, uHTS, HEK293 (AID 1566). Type of test: functional.
A further test deals with INS1. Kind of test: INS-1E survival protection against cytokine death – cell-based, luminescence, retest, dose response (AID 449756).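 Also: cell death triggered by IL-1 beta plus TNF-alpha plus IFN-gamma mixture; protective hits raise ATP signal compared with cytokine alone wells.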 Format: functional. Particulars: Rattus norvegicus.
Test [6] deals with HEK293. Nature of the test: cells. Type of test: functional, cell-based. Particulars: Homo sapiens.
The next test concerns the target Galanin receptor type 2 (Homo sapiens, UniProt O43603). Kind of test: Dose Response cell-based high-throughput screening assay to identify antagonists of galanin receptor 2 (GALR2). [Related pubchem assays: 828, 866 ]. Type of test: functional.
Test [7] concerns HEK293. Kind of test: inhibition of NOD1-driven NF-kB reporter – cell-based, luminescence, uHTS, primary screen (AID 1578). Format: functional. As to conditions: Homo sapiens.
Test [8] concerns the target Heat shock protein HSP 90-alpha (Homo sapiens, UniProt P07900). Kind of test: Luminescence-based dose response biochemical high throughput screening assay for inhibitors of the Heat Shock Protein 90 (HSP90). [Related pubchem assays: 1831 (Summary AID.), 1846 (Confirmation screen.), 1789 (Primary screen.)].
Test [9] relates to HEK293. Nature of the test: cells. Format: functional, cell-based. As to conditions: Homo sapiens. The source holds these as a separate data set.
Test [10] concerns HEK293. Kind of test: NOD2 signaling inhibitors in MDP-stimulated cells, cell-based, uHTS, luminescence (AID 2001). Format: functional. Particulars: Homo sapiens.
Test [11] deals with HEK293. Kind of test: cells. Format: functional, cell-based. As to conditions: Homo sapiens. This is another data set of the same source.
Test [12] concerns the target COUP transcription factor 2 (Homo sapiens, UniProt P24468). Kind of test: Luminescence-based cell-based high throughput dose response assay to identify inhibitors of COUP-TFII (NR2F2). Type of test: functional.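 Also: HEK293 cells transiently cotransfected with COUP-TFII expression vector and reporter; luciferase reporter luminescence driven by COUP-TFII from the pX2-168 reporter plasmid.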
Test [13] is described as follows: toxicity toward immortalized ovarian surface epithelium – cell-based, plate reader, dry powder samples, cytotoxicity control for PAX8 inhibitor project, dose response (AID 743045). Type of test: functional.
Test [14] can be described thus: COV434 cell viability loss – plate reader, dry powder, SA7, cytotoxicity control for PAX8 inhibitor project, dose response (AID 743145). Type of test: functional, cell-based.
Test [15] is described as follows: OV-90 cell viability loss – plate reader, dry powder, SA8, PAX8 inhibitor project, dose response (AID 743149). Format: functional, cell-based.
Test [16] in a line: PAX8-dependent cell viability loss – plate reader, dry powder, dose response (AID 743049). Format: functional, cell-based.
Test [17] can be described thus: inhibitors acting on PAX2 in cells – cell-based, plate reader, dry powder samples, selectivity assay for PAX8 inhibitor project, dose response (AID 743048).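 Also: HEK293 cells carrying a WT1 promoter luciferase reporter driven by expressed Pax2; potency is for inhibition of Pax2 driven reporter signal.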 Format: functional.
Test [18] can be described thus: OVCAR4 cell viability loss – plate reader, dry powder, SA11, cytotoxicity control for PAX8 inhibitor project, dose response (AID 743150). Particulars: OVCAR-4. Type of test: functional, cell-based.
The nature of test [19]: COV362 cell viability loss – plate reader, dry powder, SA12, cytotoxicity control for PAX8 inhibitor project, dose response (AID 743144). Type of test: functional, cell-based.
A further test concerns the target Paired box protein Pax-8 (Homo sapiens, UniProt Q06710). Kind of test: PAX8 transcriptional activity inhibition in RMG-I – RMG-I cells, luciferase, cherry-pick, dose response (AID 687027).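 Also: luciferase reporter driven by Pax8 target thyroperoxidase promoter measured by SteadyGlo luminescence.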 Type of test: functional, cell-based.
A short description of test [20]: PAX5 cellular inhibition readout – cell-based, plate reader, dry powder samples, selectivity assay for PAX8 inhibitor project, dose response (AID 743047).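 Also: HEK293 cells carrying a Pax5 driven CD19 promoter luciferase reporter; potency of inhibitors that lower reporter luminescence.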 Type of test: functional.
Test [21] can be described thus: Late stage counterscreen for inhibitors of Trypanosoma brucei methionyl tRNA synthetase (MetRS): Luminescence-based cell-based high throughput dose response assay to identify compounds that are cytotoxic to Jurkat human T lymphocyte cells. Type of test: functional.
Test [22] in a line: Counterscreen for inhibitors of Trypanosoma brucei methionyl tRNA synthetase (MetRS): Luminescence-based cell-based high throughput dose response assay to identify compounds that are cytotoxic to Jurkat human T lymphocyte cells. Format: functional. In general terms: Counterscreens check selectivity or assay interference.
In test [23] the target is T3, Methionyl-tRNA synthetase, putative (Trypanosoma brucei brucei, UniProt Q38C91).
T3 sequence (Q38C91 whole entry): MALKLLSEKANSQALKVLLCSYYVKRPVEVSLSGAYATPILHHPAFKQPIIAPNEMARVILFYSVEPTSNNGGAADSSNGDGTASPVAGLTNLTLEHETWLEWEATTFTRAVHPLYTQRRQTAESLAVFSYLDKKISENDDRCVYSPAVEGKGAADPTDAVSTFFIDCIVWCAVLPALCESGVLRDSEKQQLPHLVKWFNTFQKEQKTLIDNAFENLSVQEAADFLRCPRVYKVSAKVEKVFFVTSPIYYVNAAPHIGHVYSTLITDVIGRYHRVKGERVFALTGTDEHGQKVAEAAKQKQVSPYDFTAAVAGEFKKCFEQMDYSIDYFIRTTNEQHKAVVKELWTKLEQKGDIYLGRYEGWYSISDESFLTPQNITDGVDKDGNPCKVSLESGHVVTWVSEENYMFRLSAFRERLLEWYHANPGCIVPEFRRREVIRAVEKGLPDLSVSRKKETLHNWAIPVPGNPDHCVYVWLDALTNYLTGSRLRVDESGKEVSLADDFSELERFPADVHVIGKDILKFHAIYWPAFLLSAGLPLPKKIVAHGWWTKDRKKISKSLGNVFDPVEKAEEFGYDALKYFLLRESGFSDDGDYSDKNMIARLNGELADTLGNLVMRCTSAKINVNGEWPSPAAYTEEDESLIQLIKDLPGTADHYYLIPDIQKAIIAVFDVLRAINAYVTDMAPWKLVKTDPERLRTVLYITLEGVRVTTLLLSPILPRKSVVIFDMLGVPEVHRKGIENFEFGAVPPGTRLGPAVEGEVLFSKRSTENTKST
Type of test: functional, Trypanosoma brucei brucei strain 927/4 GUTat10.1.

Test [24] concerns the target T3, Methionyl-tRNA synthetase, putative. Format: functional, Trypanosoma brucei brucei strain 927/4 GUTat10.1. The source holds these as a separate data set.
Test [25] concerns the target NAD-dependent protein deacylase sirtuin-5, mitochondrial (Homo sapiens, UniProt Q9NXA8). Nature of the test: sirtuin-5 deacylation blockers, concentration series – biochemical, fluorescence imaging, cherry-pick, set 5, dose response (AID 720591).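 Also: desuccinylation of succinyl peptide AMC substrate read as fluorescence after trypsin release; potency of inhibitors that lower fluorescence and may act on trypsin instead.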
Test [26] addresses T4, Endoribonuclease toxin MazF (Escherichia coli K-12, UniProt P0AE70).
T4 sequence (P0AE70 whole entry): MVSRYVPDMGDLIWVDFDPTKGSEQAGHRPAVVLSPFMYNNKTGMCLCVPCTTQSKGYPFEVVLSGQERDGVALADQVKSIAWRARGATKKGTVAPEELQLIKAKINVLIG
Kind of test: substrate-only fluorescence increase artefacts – biochemical, single-stranded RNase substrate, counter-screen for MazEF activator project, dose response (AID 588502). Format: functional.

Another test deals with Protein Tat (Human immunodeficiency virus type 1 group M subtype B (isolate HXB2)(HIV-1), UniProt P04608). Format: functional.
For test [27], the target named is T4, Endoribonuclease toxin MazF. Kind of test: activation of MazEF endoribonuclease cleavage – biochemical, fluorescence, single-stranded RNA substrate, uHTS hits, dose response (AID 588481). Format: functional.

Sequence of NAD-dependent protein deacylase sirtuin-5, mitochondrial (Q9NXA8 whole entry): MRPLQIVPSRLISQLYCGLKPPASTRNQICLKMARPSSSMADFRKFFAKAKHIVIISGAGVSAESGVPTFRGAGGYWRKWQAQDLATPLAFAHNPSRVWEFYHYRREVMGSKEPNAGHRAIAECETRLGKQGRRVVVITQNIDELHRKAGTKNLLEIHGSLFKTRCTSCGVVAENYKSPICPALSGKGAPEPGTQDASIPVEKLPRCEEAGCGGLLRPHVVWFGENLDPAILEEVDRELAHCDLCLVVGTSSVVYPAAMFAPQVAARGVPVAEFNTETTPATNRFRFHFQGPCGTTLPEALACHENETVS
Sequence of Galanin receptor type 2 (O43603 whole entry): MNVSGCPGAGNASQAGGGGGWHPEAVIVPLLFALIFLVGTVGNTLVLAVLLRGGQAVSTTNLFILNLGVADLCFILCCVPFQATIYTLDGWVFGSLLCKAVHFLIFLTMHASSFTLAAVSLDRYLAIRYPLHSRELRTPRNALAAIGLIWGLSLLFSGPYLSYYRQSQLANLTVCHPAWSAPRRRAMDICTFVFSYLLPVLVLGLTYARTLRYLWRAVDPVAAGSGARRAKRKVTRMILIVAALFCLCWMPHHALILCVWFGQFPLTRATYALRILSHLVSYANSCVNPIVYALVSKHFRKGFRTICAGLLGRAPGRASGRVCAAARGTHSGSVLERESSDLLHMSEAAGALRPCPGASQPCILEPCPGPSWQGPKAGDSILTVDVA
Sequence of Nucleotide-binding oligomerization domain-containing protein 2 (Q9HC29 whole entry, the tested form may be a part): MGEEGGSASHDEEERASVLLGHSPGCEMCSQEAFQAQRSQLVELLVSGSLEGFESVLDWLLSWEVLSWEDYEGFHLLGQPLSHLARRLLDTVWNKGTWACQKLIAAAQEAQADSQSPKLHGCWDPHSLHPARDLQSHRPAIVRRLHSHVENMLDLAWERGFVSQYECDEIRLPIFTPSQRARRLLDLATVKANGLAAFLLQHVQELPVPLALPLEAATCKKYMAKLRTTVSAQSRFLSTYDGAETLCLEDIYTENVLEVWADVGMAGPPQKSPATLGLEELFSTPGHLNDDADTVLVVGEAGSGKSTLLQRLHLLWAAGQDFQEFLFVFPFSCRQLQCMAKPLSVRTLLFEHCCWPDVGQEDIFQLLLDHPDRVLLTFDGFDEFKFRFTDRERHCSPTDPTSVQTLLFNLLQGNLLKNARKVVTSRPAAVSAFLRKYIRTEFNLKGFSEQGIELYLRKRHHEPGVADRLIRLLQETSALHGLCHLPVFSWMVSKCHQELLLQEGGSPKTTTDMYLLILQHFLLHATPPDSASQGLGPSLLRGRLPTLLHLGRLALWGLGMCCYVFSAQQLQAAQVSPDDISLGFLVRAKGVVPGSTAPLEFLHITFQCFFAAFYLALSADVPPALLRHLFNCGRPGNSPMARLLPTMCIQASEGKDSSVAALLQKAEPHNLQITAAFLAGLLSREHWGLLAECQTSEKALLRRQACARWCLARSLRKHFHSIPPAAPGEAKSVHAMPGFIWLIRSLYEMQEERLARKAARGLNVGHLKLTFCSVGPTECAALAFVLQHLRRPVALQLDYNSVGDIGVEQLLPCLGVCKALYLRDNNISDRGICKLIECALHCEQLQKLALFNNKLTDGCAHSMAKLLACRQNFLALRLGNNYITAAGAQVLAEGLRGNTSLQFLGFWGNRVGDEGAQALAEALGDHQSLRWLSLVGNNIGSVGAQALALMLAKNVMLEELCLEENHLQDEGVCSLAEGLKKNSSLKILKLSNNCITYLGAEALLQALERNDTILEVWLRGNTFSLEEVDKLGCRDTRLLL
Sequence of Protein Tat (P04608 whole entry): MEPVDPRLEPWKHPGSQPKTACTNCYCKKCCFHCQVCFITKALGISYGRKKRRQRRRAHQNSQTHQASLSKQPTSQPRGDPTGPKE
Sequence of COUP transcription factor 2 (P24468 whole entry): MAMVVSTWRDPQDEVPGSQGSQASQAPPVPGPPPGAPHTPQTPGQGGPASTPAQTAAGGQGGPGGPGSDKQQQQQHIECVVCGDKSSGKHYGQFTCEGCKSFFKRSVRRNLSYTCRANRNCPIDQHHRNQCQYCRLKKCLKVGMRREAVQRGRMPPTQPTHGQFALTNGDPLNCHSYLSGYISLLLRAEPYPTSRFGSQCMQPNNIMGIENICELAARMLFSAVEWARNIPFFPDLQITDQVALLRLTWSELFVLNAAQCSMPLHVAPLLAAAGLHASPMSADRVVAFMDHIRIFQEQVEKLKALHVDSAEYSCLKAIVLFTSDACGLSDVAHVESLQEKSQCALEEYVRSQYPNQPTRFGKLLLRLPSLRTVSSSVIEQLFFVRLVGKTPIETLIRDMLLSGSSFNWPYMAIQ
Sequence of Paired box protein Pax-8 (Q06710 whole entry): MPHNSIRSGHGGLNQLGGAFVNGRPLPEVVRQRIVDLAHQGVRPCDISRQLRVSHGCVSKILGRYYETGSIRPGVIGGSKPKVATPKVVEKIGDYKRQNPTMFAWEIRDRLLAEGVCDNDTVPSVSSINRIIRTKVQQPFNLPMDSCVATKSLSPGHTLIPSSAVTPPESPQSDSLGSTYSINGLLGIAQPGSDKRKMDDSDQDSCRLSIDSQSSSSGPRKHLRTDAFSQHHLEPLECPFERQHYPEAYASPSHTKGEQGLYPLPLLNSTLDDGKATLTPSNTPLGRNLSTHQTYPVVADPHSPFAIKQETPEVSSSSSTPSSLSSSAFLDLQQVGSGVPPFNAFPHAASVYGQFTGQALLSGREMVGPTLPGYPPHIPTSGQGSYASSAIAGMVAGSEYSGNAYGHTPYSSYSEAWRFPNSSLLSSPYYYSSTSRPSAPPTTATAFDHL

Take `CN(Cc1ccccc1)c1nc2c(c(=O)[nH]c(=O)n2C)n1Cc1ccccc1`: the IC50 in test [1] is listed as > 100 µM (not active).
With `CCOc1cc(CNC2CCCC2)cc(Cl)c1OCc1ccc(F)cc1`, the EC50 is 16.1 µM (active) in [2] and 12.5 µM (active) in test [4]. Besides, in test [3], the AC50 is 9.73 µM (active). The IC50 at Protein skinhead-1 was < 3.13 µM (active).
For the molecule `CC(=O)Nc1ccccc1OCC(=O)c1cc(C)n(Cc2cccs2)c1C`, the EC50 is < 0.31 µM (inactive) in test [5] and 0.566 µM (active) in the test with HEK293 [7]. Besides, the AC50 in the test with INS1 is 0.775 µM (active). Moreover, the IC50 in the test with HEK293 [6] is < 0.312 µM (active); on Galanin receptor type 2 it was > 42 µM (not active); in [8], 0.106 µM (active); in the test with HEK293 [9], > 20 µM (inactive); in the test with HEK293 [10] it was 2.05 µM (inactive); in the test on HEK293 [11], 13.4 µM (active). For the same molecule, the IC50 in [12] is 0.807 µM (active).
With `COc1ccc(CCN2C(=O)CSC2=S)cc1OC`, the AC50 in test [13] is 16.8 µM (active); in test [14], 6.49 µM (active); in test [15], 8.61 µM (active); in test [16], 16 µM (active); in test [17], 68.3 µM (active); in [18] it was 51.2 µM (active). For the same molecule, the half-maximal activity concentration (AC50) is 16.6 µM (active) in test [19], 7.01 µM (active) at Paired box protein Pax-8 and > 100 µM (inactive) in test [20].
For `Clc1ccc(OCCSCc2nc3ccccc3[nH]2)cc1`, the IC50 in test [21] was > 83.3 µM (inactive); in test [22], 83.3 µM (inactive); in test [23], 8.17 µM (active); in test [24], 5.85 µM (active).
In the case of `O=C(O)CCNC(=O)c1ccc(NC(=O)C(c2ccccc2)c2ccccc2)cc1`, the AC50 in test [25] is 10.6 µM (active).
In the case of `CCN(CC)c1ccc(/C=N/c2ccc(N(C)C)cc2)c(O)c1`, the EC50 in [26] and in test [27] was > 99 µM (inactive) in each case. Further, at Protein Tat, the IC50 is > 100 µM (inconclusive).
